Experimental data as given in patent publication US5213974A, “Fermentation process for preparing antibiotics mureidomycins A, B, C and D” (priority 1986, dated 1993).
Values after ≈ are worked out from the molar mass of the structure shown.

Tests used:
[1] = Solubility in water and organic solvents; assay type: physicochemical
mice = assay: Toxicity in mice, intravenous; assay type: in vivo
[2] = tested on: gram-negative bacteria, particularly bacteria of the genus Pseudomonas; assay: Antibacterial activity, summary of the MIC data; assay type: cell-based
Experimental: (§1) The minimal inhibitory concentrations (MIC) of mureidomycins A, B, C and D against various gram-positive and gram-negative bacteria were determined by the two-fold agar dilution method, using a Mueller-Hinton agar medium (produced by Difco).
From the above data, mureidomycins A, B, C and D are active against gram-negative bacteria, particularly against bacteria of the genus Pseudomonas.

[3] = tested on: Pseudomonas aeruginosa ATCC 13388; assay: MIC, two-fold agar dilution method, Mueller-Hinton agar; assay type: cell-based
Experimental: as §1

[4] = tested on: Proteus mirabilis SANK 70461; assay: as above; assay type: cell-based
Experimental: as §1

[5] = tested on: Pseudomonas aeruginosa SANK 73375; assay: as above; assay type: cell-based
Experimental: as §1

[6] = tested on: Esherichia coli NIHJ JC-2; assay: as above; assay type: cell-based
Experimental: as §1

[7] = tested on: Pseudomonas acidovorans SANK 72782; assay: as above; assay type: cell-based
Experimental: as §1

[8] = tested on: Staphylococcus aureus FDA 209P JC-1; assay: as above; assay type: cell-based
Experimental: as §1

[9] = tested on: Pseudomonas aeruginosa SANK 71873; assay: as above; assay type: cell-based
Experimental: as §1

[10] = tested on: Pseudomonas aeruginosa SANK 70479; assay: as above; assay type: cell-based
Experimental: as §1

[11] = tested on: Pseudomonas aeruginosa SANK 73279; assay: as above; assay type: cell-based
Experimental: as §1

[12] = tested on: Pseudomonas aeruginosa SANK 73379; assay: as above; assay type: cell-based
Experimental: as §1

[13] = tested on: Pseudomonas aeruginosa NRRLB 1000; assay: as above; assay type: cell-based
Experimental: as §1

[14] = tested on: Klebsiella pneumoniae PCI 602; assay: as above; assay type: cell-based
Experimental: as §1

[15] = tested on: Pseudomonas aeruginosa NCTC 10490; assay: as above; assay type: cell-based
Experimental: as §1

[16] = tested on: Pseudomonas aeruginosa SANK 75775; assay: as above; assay type: cell-based
Experimental: as §1

[17] = tested on: Pseudomonas aeruginosa SANK 75175; assay: as above; assay type: cell-based
Experimental: as §1

[18] = tested on: Pseudomonas aeruginosa SANK 70579; assay: as above; assay type: cell-based
Experimental: as §1

[19] = tested on: Serratia marcescens SANK 73060; assay: as above; assay type: cell-based
Experimental: as §1

[20] = tested on: Pseudomonas aeruginosa SANK 70970; assay: as above; assay type: cell-based
Experimental: as §1

| Molecule | Solubility ([1]; acetone) | Solubility ([1]; benzene) | Solubility ([1]; chloroform) | Solubility ([1]; ethyl acetate) | Solubility ([1]; methanol) | Solubility ([1]; water) | activity against gram-negative bacteria [2] | MIC [3] | MIC [4] | MIC [5] | MIC [6] | MIC [7] | MIC [8] | MIC [9] | MIC [10] | MIC [11] | MIC [12] | MIC [13] | MIC [14] | MIC [15] | also measured |
| --- | --- | --- | --- | --- | --- | --- | --- | --- | --- | --- | --- | --- | --- | --- | --- | --- | --- | --- | --- | --- | --- |
| CSCC[C@H](NC(=O)NC(Cc1cccc(O)c1)C(=O)O)C(=O)N[C@@H](C(=O)N/C=C1\CC(O)C(N2CCC(=O)NC2=O)O1)C(C)N(C)C(=O)[C@@H](N)Cc1cccc(O)c1 (some centres unmarked) [Mureidomycin B, mureidomycin B] | slightly soluble | insoluble | insoluble | insoluble | Soluble | Soluble | active | 50 µg/mL (≈ 59.3 µM) | > 200 µg/mL | 25 µg/mL (≈ 29.7 µM) | > 200 µg/mL | 200 µg/mL (≈ 237 µM) | > 200 µg/mL | 25 µg/mL (≈ 29.7 µM) | 12.5 µg/mL (≈ 14.8 µM) | 25 µg/mL (≈ 29.7 µM) | 200 µg/mL (≈ 237 µM) | 50 µg/mL (≈ 59.3 µM) | 25 µg/mL (≈ 29.7 µM) | 0.8 µg/mL (≈ 0.949 µM) | toxicity (mice; mice, 400 mg/kg intravenously): No toxicity was observed; MIC [16]: 200 µg/mL (≈ 237 µM); MIC [17]: 50 µg/mL (≈ 59.3 µM); MIC [18]: 0.2 µg/mL (≈ 0.237 µM); MIC [19]: > 200 µg/mL; MIC [20]: 25 µg/mL (≈ 29.7 µM) |
| CSCC[C@H](NC(=O)NC(Cc1cccc(O)c1)C(=O)O)C(=O)N[C@@H](C(=O)NC=C1CC(O)C(n2ccc(=O)[nH]c2=O)O1)C(C)N(C)C(=O)[C@@H](N)Cc1cccc(O)c1 (some centres unmarked) [Mureidomycin A, mureidomycin A] | slightly soluble | insoluble | insoluble | insoluble | Soluble | Soluble | active | 25 µg/mL (≈ 29.7 µM) | > 200 µg/mL | 12.5 µg/mL (≈ 14.9 µM) | > 200 µg/mL | > 200 µg/mL | 200 µg/mL (≈ 238 µM) | 6.25 µg/mL (≈ 7.43 µM) | 6.25 µg/mL (≈ 7.43 µM) | 12.5 µg/mL (≈ 14.9 µM) | 100 µg/mL (≈ 119 µM) | 25 µg/mL (≈ 29.7 µM) | 25 µg/mL (≈ 29.7 µM) | 0.4 µg/mL (≈ 0.476 µM) | toxicity (mice; mice, 400 mg/kg intravenously): No toxicity was observed; MIC [16]: 6.25 µg/mL (≈ 7.43 µM); MIC [17]: 25 µg/mL (≈ 29.7 µM); MIC [18]: < 0.1 µg/mL; MIC [19]: > 200 µg/mL; MIC [20]: 12.5 µg/mL (≈ 14.9 µM) |
| CSCC[C@H](NC(=O)NC(Cc1cccc(O)c1)C(=O)O)C(=O)N[C@@H](C(=O)NC=C1CC(O)C(n2ccc(=O)[nH]c2=O)O1)C(C)N(C)C(=O)[C@H](Cc1cccc(O)c1)NC(=O)CN (some centres unmarked) [Mureidomycin C, mureidomycin C] | slightly soluble | insoluble | insoluble | insoluble | Soluble | Soluble | active | 3.13 µg/mL (≈ 3.49 µM) | > 200 µg/mL | 3.13 µg/mL (≈ 3.49 µM) | > 200 µg/mL | > 200 µg/mL | > 200 µg/mL | 1.56 µg/mL (≈ 1.74 µM) | 1.56 µg/mL (≈ 1.74 µM) | 1.56 µg/mL (≈ 1.74 µM) | 6.25 µg/mL (≈ 6.96 µM) | 3.13 µg/mL (≈ 3.49 µM) | 12.5 µg/mL (≈ 13.9 µM) | 0.4 µg/mL (≈ 0.445 µM) | toxicity (mice; mice, 400 mg/kg intravenously): No toxicity was observed; MIC [16]: 1.56 µg/mL (≈ 1.74 µM); MIC [17]: 3.13 µg/mL (≈ 3.49 µM); MIC [18]: < 0.1 µg/mL; MIC [19]: > 200 µg/mL; MIC [20]: 1.56 µg/mL (≈ 1.74 µM) |
| mureidomycin D | slightly soluble | insoluble | insoluble | insoluble | Soluble | Soluble | active | 6.25 µg/mL | > 200 µg/mL | 6.25 µg/mL | > 200 µg/mL | 100 µg/mL | > 200 µg/mL | 6.25 µg/mL | 6.25 µg/mL | 6.25 µg/mL | 50 µg/mL | 6.25 µg/mL | 25 µg/mL | 1.56 µg/mL | toxicity (mice; mouse, in vivo, iv, 400 mg/kg): No toxicity was observed; MIC [16]: 6.25 µg/mL; MIC [17]: 12.5 µg/mL; MIC [18]: 0.2 µg/mL; MIC [19]: > 200 µg/mL; MIC [20]: 3.13 µg/mL |
